Source: ChEMBL document CHEMBL1127245, “The effect of heteroatom substitution on a series of phosphonate inhibitors of neutral endopeptidase 24.11” (Bioorg Med Chem Lett, 1994)

Molecular target: T1, Neprilysin (Rattus norvegicus, UniProt P07861)
T1 sequence (P07861 whole entry): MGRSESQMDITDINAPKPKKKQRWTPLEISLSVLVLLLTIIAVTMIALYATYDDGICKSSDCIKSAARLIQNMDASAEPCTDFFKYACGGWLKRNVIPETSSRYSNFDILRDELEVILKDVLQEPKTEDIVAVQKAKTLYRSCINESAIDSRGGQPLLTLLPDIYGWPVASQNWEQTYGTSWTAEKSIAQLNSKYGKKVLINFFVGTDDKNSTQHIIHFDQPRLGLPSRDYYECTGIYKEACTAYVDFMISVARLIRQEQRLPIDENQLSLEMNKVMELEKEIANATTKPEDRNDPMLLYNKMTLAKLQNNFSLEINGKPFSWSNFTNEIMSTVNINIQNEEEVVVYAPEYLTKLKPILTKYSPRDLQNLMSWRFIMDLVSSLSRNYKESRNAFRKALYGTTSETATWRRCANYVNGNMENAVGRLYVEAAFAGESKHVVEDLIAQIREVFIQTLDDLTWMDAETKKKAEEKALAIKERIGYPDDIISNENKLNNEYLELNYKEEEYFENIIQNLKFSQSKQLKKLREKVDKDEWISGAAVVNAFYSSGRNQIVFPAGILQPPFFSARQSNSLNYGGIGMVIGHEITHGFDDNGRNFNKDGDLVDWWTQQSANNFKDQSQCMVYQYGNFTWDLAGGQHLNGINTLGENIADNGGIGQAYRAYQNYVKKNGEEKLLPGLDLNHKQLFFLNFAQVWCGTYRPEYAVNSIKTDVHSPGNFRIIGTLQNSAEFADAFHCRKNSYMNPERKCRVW
Experiment: In vitro inhibitory activity against neutral endopeptidase (NEP 24.11) from rat kidney cortex membranes

Structure (SMILES)	IC50 [nM]
O=C(O)CCNC(=O)C(CCP(=O)(O)O)Cc1ccc(-c2ccccc2)cc1 (stereo not given)	1000
O=C(O)CCNC(=O)[C@H](Cc1ccc(-c2ccccc2)cc1)NCP(=O)(O)O	1.6
O=C(O)CCNC(=O)C(Cc1ccc(-c2ccccc2)cc1)S(=O)(=O)CP(=O)(O)O (stereo not given)	> 10000

Other lines, results leading:

IC50 [nM]	Structure (SMILES)
797	O=C(O)CCNC(=O)C(Cc1ccc(-c2ccccc2)cc1)SCP(=O)(O)O (stereo not given)
9.5	O=C(O)CCNC(=O)C(Cc1ccc(-c2ccccc2)cc1)OCP(=O)(O)O (stereo not given)
